Experimental data from patent publication US9857357B2, “Method of screening modulator of XKR8” (KYOTO UNIVERSITY, priority 2012, dated 2018).

Experiments:
Type in all cases: cell-based, human
[1] = test system: Xkr8 mRNA in PLB-985 cells; test: Real-time RT-PCR of Xkr8 mRNA in DAC-treated PLB-985 cells
Method: To treat human PLB-985 cells with 5-aza-2′-deoxycytidine (DAC, Sigma-Aldrich), 1.0×10^6 cells in 10 ml of RPMI containing 10% FCS were incubated with 0.5 μM DAC for up to 7 days. Since DAC is an unstable compound, the medium containing DAC was changed every 24 hours. After DAC treatment, the cells were divided into three portions: one portion for FACS to analyze the PtdSer exposure, one for real-time RT-PCR for Xkr8 gene expression, and one for the methylation-specific PCR analysis^67. For the bisulfite genomic sequencing, the DNA was modified with bisulfite using a kit (MethyEasy Xceed, Human Genetic Signatures). In brief, 3 μg DNA was denatured by incubation at 37° C. for 15 min in 0.3 M NaOH, and treated with sodium bisulfite according to the protocol provided by the supplier except that the incubation time was changed to 90 min. The modified DNA was denatured at 95° C. for 20 min, and amplified by PCR using primers specific for the treated DNA ([…] (SEQ ID NO; 20) and […] (SEQ ID NO; 21)). PCR was carried out with EpiTaq HS polymerase (Takara Bio) for 7-40 cycles, and the product was cloned in a pGEM-Teasy vector for sequencing. […]
The specific mRNA was quantified at the point where the LightCycler System detected the upstroke of the exponential phase of PCR accumulation with the respective linearized plasmid DNA as reference.

[2] = test system: CpG sites of the hXkr8 gene promoter in PLB-985 cells; test: Bisulfite genomic sequencing of CpG sites between -239 and +7 of the hXkr8 gene; conditions: 0.5 μM DAC, day 7
Method: To treat human PLB-985 cells with 5-aza-2′-deoxycytidine (DAC, Sigma-Aldrich), 1.0×10^6 cells in 10 ml of RPMI containing 10% FCS were incubated with 0.5 μM DAC for up to 7 days. Since DAC is an unstable compound, the medium containing DAC was changed every 24 hours. After DAC treatment, the cells were divided into three portions: one portion for FACS to analyze the PtdSer exposure, one for real-time RT-PCR for Xkr8 gene expression, and one for the methylation-specific PCR analysis^67. For the bisulfite genomic sequencing, the DNA was modified with bisulfite using a kit (MethyEasy Xceed, Human Genetic Signatures). In brief, 3 μg DNA was denatured by incubation at 37° C. for 15 min in 0.3 M NaOH, and treated with sodium bisulfite according to the protocol provided by the supplier except that the incubation time was changed to 90 min. The modified DNA was denatured at 95° C. for 20 min, and amplified by PCR using primers specific for the treated DNA ([…] (SEQ ID NO; 20) and […] (SEQ ID NO; 21)). PCR was carried out with EpiTaq HS polymerase (Takara Bio) for 7-40 cycles, and the product was cloned in a pGEM-Teasy vector for sequencing.

PLB-985 cells = test: PtdSer exposure (Cy5-Annexin V staining) of DAC-treated PLB-985 cells after UV irradiation; conditions: PLB-985 cells treated with DAC for five days, Cy5-Annexin V and PI
Method: Apoptosis was induced by treating cells with FasL or staurosporine, or exposing them to UV. In brief, 5×10^5 cells in 500 μl of culture medium were incubated at 37° C. with 10-400 units/ml hFasL for 1.2-2.0 h or with 10 μM staurosporine for 1.5-4.0 h. For UV exposure, 1×10^6 cells in 2 ml of PBS were exposed to 500-2000 J/m UV radiation (254 nm) in a StrataLinker UV oven (Stratagene), and incubated at 37° C. for 1.5-2.0 h in 4 ml of RPMI1640 containing 10% FCS. To monitor Ca^2÷-ionophore-induced PtdSer exposure, cells (5×10^5 cells) in 500 μl of Annexin V staining buffer (10 mM Hepes-NaOH buffer [pH7.4] containing 140 mM NaCl and 2.5 mM CaCl2) were incubated at 20° C. for 3 min, treated with 3.0-10 μM A23187, and analyzed with FACSAria at 20° C.
To detect PtdSer and PtdEtn exposed on the cell surface, cells were stained on ice for 15 min with 2500-5000-fold diluted Cy5-Annexin V (Biovision) or 800-fold diluted-biotin-Ro09-0198^66 followed by 1.0 μg/ml APC-streptavidin in Annexin V staining buffer in the presence of 5 μg/ml propidium iodide (PI), and analyzed by FACSAria or FACSCalibur (BD Biosciences). […] Aliquots (150 μl) were mixed with 150 μl HBSS containing 5 μg/ml fatty-acid free BSA (Sigma-Aldrich) and 500 nM Sytoxblue (Molecular Probes), and analyzed by FACSAria. […]

Compound: Nc1ncn([C@H]2C[C@H](O)[C@@H](CO)O2)c(=O)n1 [DAC, 5-aza-2′-deoxycytidine]
- Change of Xkr8 mRNA level ([1]; 0.5 μM DAC for up to 7 days): gradually increased
- Xkr8 mRNA level relative to that in Namalwa cells ([1]; 0.5 μM DAC, day 7): about 91%
- Methylation status of the 23 CpG sites between -239 and +7 [2]: highly demethylated
- PtdSer exposure in response to UV irradiation (PLB-985 cells): gained the ability to expose PtdSer
